From US7829300B2 (priority 2002, dated 2010)

Key:
5HT-1B receptor = biological target: T1, 5HT-1B receptor (Cricetulus griseus, UniProt P46636); experiment: Cytoplasmic Ca2+ measurement (FLIPR, fluo-4) of the endogenously expressed 5HT-1B receptor in CHO K1 cells; type: cell-based; conditions: serotonin concentration 10 μM, 100 nM ATP, CHOK1-ORL-K66, mean of four measurements
T1 construct: the 5HT-1B receptor endogenously expressed by the CHO cells; endogenous in cells; host or cells: CHO K1 (CHOK1-ORL-K66)
T1 sequence (P46636 whole entry): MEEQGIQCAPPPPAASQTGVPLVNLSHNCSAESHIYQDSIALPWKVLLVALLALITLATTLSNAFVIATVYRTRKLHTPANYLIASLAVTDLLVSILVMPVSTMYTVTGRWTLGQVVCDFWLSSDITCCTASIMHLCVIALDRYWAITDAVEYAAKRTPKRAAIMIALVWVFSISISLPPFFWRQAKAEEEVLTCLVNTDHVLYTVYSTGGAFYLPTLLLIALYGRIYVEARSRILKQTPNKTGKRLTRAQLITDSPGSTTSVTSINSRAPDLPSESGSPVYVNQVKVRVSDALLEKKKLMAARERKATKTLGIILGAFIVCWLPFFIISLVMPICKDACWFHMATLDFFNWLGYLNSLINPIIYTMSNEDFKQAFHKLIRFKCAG
Protocol: The cytoplasmic Ca^2+ concentration was measured in all the Examples using the FLIPR Calcium Plus Assay Kit and a corresponding FLIPR device from Molecular Devices, according to the manufacturer's instructions.
In brief, on the day preceding the experiment, the cells to be measured were plated out in a suitable 96-well cell culture plate, in a density of 25,000 cells per well, in a volume of 100 μl of the appropriate medium. Cell culture plates from Becton-Dickinson (order no. 66440) coated with poly-D-lysine were used for the test. On the day of the test, the cells were loaded with fluo-4. To that end, a vial of fluo-4 was dissolved in 23 μl of DMSO and 23 μl of Pluronic F 127. 42 μl of the solution were added to 21 ml of HBSS (+Probenecid and Hepes). 50 μl of this solution per well were added to the cells, the plates being incubated, for loading, for 30 minutes at 37° C., 5% CO2, 98% relative humidity. In order to remove excess loading solution, the plates were washed three times with 200 μl of HBSS in a washing device for 96-well plates. This was followed by a dispension step, in which in each case 100 μl of HBSS were added to the cells. […]
Compared with the negative control, the addition of the 5HT-1B agonist serotonin produced a marked signal intensification in the fluorescence measurement (FIG. 6).

μ opioid receptor = biological target: T2, μ opioid receptor (Homo sapiens, UniProt P35372); type: cell-based
T2 construct: expressed in transfected cells; host or cells: CHO K1 (clone CHOK1-μ-K32)
T2 sequence (P35372 whole entry, species assumed): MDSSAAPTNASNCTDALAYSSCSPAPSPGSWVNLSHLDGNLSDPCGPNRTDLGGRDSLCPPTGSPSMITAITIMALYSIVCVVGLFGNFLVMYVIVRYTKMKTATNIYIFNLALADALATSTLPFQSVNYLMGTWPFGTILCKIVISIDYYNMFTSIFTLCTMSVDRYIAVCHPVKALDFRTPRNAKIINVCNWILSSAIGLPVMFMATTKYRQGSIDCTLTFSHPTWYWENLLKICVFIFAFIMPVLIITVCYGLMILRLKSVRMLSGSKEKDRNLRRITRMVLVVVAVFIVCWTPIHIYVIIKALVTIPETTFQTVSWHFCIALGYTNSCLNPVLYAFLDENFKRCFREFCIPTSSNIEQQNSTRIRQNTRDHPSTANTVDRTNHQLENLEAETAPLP

[1] = system: CHOK1-empty (mock) strain; type: cell-based
P2Y2 receptor = experiment: Cytoplasmic Ca2+ measurement with ATP alone in CHOK1-μ-K32 cells (endogenous P2Y2); type: cell-based
P2X7 = biological target: T3, P2X7 (Homo sapiens, UniProt Q99572); conditions: P2X7 versus P2Y2; cited from earlier work
T3 sequence (Q99572 1-595): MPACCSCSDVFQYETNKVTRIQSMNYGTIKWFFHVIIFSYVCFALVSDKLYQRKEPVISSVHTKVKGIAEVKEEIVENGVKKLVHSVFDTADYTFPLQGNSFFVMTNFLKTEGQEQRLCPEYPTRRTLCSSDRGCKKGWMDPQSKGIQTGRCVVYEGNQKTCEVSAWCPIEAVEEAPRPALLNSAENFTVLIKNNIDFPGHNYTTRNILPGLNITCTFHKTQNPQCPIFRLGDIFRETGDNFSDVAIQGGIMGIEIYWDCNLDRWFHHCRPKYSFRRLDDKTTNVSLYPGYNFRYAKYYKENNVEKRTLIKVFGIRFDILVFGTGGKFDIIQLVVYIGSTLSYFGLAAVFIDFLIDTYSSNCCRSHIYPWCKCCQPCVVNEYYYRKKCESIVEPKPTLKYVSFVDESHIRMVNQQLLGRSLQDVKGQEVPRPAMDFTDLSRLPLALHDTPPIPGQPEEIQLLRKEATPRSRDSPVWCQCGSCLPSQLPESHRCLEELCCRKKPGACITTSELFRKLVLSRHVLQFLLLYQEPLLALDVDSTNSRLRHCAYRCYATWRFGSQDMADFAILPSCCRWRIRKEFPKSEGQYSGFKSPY

For `NCCc1c[nH]c2ccc(O)cc12` [serotonin], the “fluorescence intensity on average” value (5HT-1B receptor) was 1337 relative units.

In the case of `C[C@@H](NC(=O)[C@@H](N)Cc1ccc(O)cc1)C(=O)NCC(=O)N(C)[C@@H](Cc1ccccc1)C(=O)NCCO` [DAMGO], the “fluorescence intensity in dependence on concentration” value (μ opioid receptor) is reported as “conventional dose-response curve”, the fluorescence signal (μ opioid receptor) is reported as “about 300 relative units” and the “effect of DAMGO on the ATP-triggered fluorescence signal” value [1] is reported as “not affected”. For the same compound, the “fluorescence signal in non-transfected CHOK1 cells” value [1] was “none of the μ-receptor agonists used gave a fluorescence signal above the background”.

In the case of `Nc1ncnc2c1ncn2[C@@H]1O[C@H](COP(=O)(O)OP(=O)(O)OP(=O)(O)O)[C@@H](O)[C@H]1O` [ATP], the fluorescence signal (P2Y2 receptor; 300 nM ATP, absence of DAMGO, CHOK1-μ-K32) is listed as “more than 1000 relative units”, the “ATP concentration at which a change in the fluorescence is detectable” value (P2Y2 receptor; ATP on its own, CHO-μ-K32 cells) is listed as at least 300 nM and the “ATP binding to P2X7 relative to P2Y2 (times more weakly)” value (P2X7) is listed as “about 100 times”.
